Laboratory results reported in patent publication US5817639A, “Purine 4'-thioarabinonucleosides” (Yamasa Corporation, priority 1995, dated 1998).
In brackets after ≈: the same amount, converted by molar mass.

Assays:
HSV-2 (MS strain) = assay: Anti-HSV-2 activity (plaque formation inhibition in human fetal lung fibroblasts); assay type: cell-based, herpes simplex virus type 2; settings: Human alphaherpesvirus 2, Fibroblast, 50% inhibition of plaque formation, human fibroblasts derived from fetal lungs, 2-3 days at 37° C., read-out: ED50 HSV-2
Method: (§1) 1. Human fibroblasts derived from fetal lungs were subjected to subculturing in Eagle MEM supplemented with 10% semi-fetal calf serum (Mitsubishi Chemical Corporation) at a 1:2-4 split every 4 days. 2. A suspension of cells obtained by splitting their parent cells (1:2) was seeded in a 12-well multi-plate (2 ml/well), followed by culturing for 4-5 days at 37° C. in a CO2 -incubator. 3. The culture liquid was discarded, and Hanks' MEM (250 μl) containing 50-150 PFU of VR-3 strain of HSV-1 or MS strain of HSV-2 was inoculated, and the virus was allowed to be adsorbed for 30 minutes at 37° C. Thereafter, the viral liquid was discarded. 4. A 2.5% serum-added Eagle MEM containing a test compound and 0.8% methylcellulose was added and the resultant mixture was incubated in a CO2 -incubator for 2-3 days at 37° C. Generally, a test compound is diluted in serial 1/2 log10, and the maximal concentration is 10 μg/ml. 5. The culture liquid was discarded, and the cells were stained with a 0.5% crystal violet solution. Under a stereoscopic light microscope, the number of plaques in each well was counted. Using the equation below, the plaque formation inhibitory ratio (percent inhibition) was obtained. […]

VZV (Oka strain) = assay: Anti-Varicella Zoster Virus (VZV) activity (plaque formation inhibition in human fetal lung fibroblasts); assay type: cell-based; settings: Human alphaherpesvirus 3, Fibroblast, read-out: ED50 VZV
Method: (§2) 1. Human fibroblasts derived from fetal lungs were subjected to subculturing in Eagle MEM supplemented with 10% semi-fetal calf serum (Mitsubishi Chemical Corporation) at a 1:2-4 split every 4 days.
2. A suspension of cells obtained by splitting their parent cells (1:2) was seeded in a 12-well multi-plate (2 ml/well), followed by culturing for 4-5 days at 37° C. in a CO2 -incubator.
3. The culture liquid was discarded, and 750 μl of a 5% serum-added Eagle MEM containing 50-100 PFU of Oka strain of VZV was inoculated, and the virus was allowed to be adsorbed for 1 hour at 37° C.
4. Without removing the virus, 750 μl of Hanks' MEM containing the test compound was added, and the resultant mixture was incubated in a CO2 -incubator at 37° C. Generally, a test compound is diluted in serial 1/2 log10, and the maximal concentration is 10 μg/ml.
5. After culturing for 4-5 days, the culture liquid was discarded, and the cells were stained with a 0.5% crystal violet solution. Under a stereoscopic light microscope, the number of plaques in each well was counted. Using the equation used in (1) above, the plaque formation inhibitory ratio was obtained.
6. The plaque formation inhibitory ratio was plotted on a graph with respect to the concentration of the test compound (logarithmic representation).

HCMV (AD-169 strain) = assay: Anti-Human Cytomegalovirus activity (plaque formation inhibition in human fetal lung fibroblasts); assay type: cell-based; settings: Human betaherpesvirus 5, AD169, Fibroblast, 50% inhibition of plaque formation, human fibroblasts derived from fetal lungs, 4 days plus further 4-5 days, read-out: ED50 HCMV
Method: as §2
2. A suspension of cells obtained by splitting their parent cells (1:2) was seeded in a 12-well multi-plate (2 ml/well), followed by culturing for 4 days at 37° C. in a CO2 -incubator.
3. The culture liquid was discarded, and 750 μl of a 5% serum-added Eagle MEM containing 50-100 PFU of AD-169 strain of HCMV was inoculated, and the virus was allowed to be adsorbed for 1 hour at 37° C.
4. Without removing the virus, 750 μl of Hanks' MEM containing the test compound was added, and the resultant mixture was incubated in a CO2 -incubator at 37° C. for 4 days. Generally, a test compound is diluted in serial 1/2 log10, and the maximal concentration is 10 μg/ml.
5. The medium was changed to a fresh 2.5% serum-added Eagle MEM containing 0.8% methylcellulose and the test compound having the same concentration, followed by culturing further for 4-5 days.
6. The culture liquid was discarded, and the cells were stained with May-Gruenwald's-Giemsa (×10). Under a stereoscopic light microscope, the number of plaques in each well was counted. Using the equation used in (1) above, the plaque formation inhibitory ratio was obtained.
7. […]

HSV-1 (VR-3 strain) = assay: Anti-HSV-1 activity (plaque formation inhibition in human fetal lung fibroblasts); assay type: cell-based, herpes simplex virus type 1; settings: Human alphaherpesvirus 1, Fibroblast, 50% inhibition of plaque formation, human fibroblasts derived from fetal lungs, 2-3 days at 37° C., read-out: ED50 HSV-1
Method: as §1

Structure (SMILES) | EC50 (HSV-2 (MS strain)) [µg/mL] | EC50 (VZV (Oka strain)) [µg/mL] | EC50 (HCMV (AD-169 strain)) [µg/mL] | EC50 (HSV-1 (VR-3 strain)) [µg/mL]
Nc1nc(N)c2ncn([C@@H]3S[C@H](CO)[C@@H](O)[C@@H]3O)c2n1 [Ia-β, 9-(4-thio-β-D-arabinofuranosyl)-2,6-diaminopurine] | 0.4 (≈ 1.34 µM) | 0.11 (≈ 0.369 µM) | 0.022 | 0.52 (≈ 1.74 µM)
Nc1nc2c(ncn2[C@@H]2S[C@H](CO)[C@@H](O)[C@@H]2O)c(=O)[nH]1 [Ib-β, 9-(4-thio-δ-D-arabinofuranosyl)guanine] | 0.59 (≈ 1.97 µM) | 0.11 (≈ 0.368 µM) | 0.011 | 0.49 (≈ 1.64 µM)
